The target in the experiment is T1, PAR1 (Homo sapiens, UniProt P25116).
T1 construct: endogenous in cells; host or cells: washed blood platelets from healthy volunteers
T1 sequence (P25116 22-425): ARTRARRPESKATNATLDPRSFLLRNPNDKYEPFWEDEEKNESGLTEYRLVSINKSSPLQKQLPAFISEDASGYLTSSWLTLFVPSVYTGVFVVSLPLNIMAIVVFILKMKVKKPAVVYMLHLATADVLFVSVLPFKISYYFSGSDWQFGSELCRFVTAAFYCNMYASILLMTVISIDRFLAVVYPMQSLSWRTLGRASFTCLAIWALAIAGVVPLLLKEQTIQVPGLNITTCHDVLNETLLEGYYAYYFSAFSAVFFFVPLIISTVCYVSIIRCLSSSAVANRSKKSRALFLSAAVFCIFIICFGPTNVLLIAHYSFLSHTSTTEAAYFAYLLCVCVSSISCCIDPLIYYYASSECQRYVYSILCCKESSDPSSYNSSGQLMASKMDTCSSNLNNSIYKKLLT
As to the kind of experiment: Inhibition of PAR1-mediated platelet aggregation induced by TRAP (thrombin receptor-activating peptide), 96-well format. It counts as cell-based. The following applies: washed platelets from healthy volunteers; TRAP as agonist; AUC of kinetics at 650 nm, 37° C., 20 minutes. The protocol:
PAR1 Determination Method: Inhibition of PAR1-Mediated Platelet Aggregation
The pharmacological testing of the substances took place in platelet aggregation induced by TRAP (thrombin receptor-activating peptide) in 96-well format. For this purpose, blood was taken from healthy volunteers in 20 ml syringes containing 2 ml of 3.13% strength sodium citrate solution. After centrifugation at 150×g for 20 minutes, the platelet-rich plasma (PRP) was separated off and mixed with 1 μl of PGE1 solution (500 μg/ml in ethanol)/ml of PRP. Incubation at RT for 5 minutes was followed by centrifugation at 120×g for 15 minutes to remove the leukocytes. The leukocyte-free PRP was transferred in 5 ml portions into 15 ml PP tubes and centrifuged at 360×g for 15 minutes in order to pellet the platelets. The plasma was then decanted off and the platelet sediment from 5 ml of PRP was resuspended in 1 ml of Tyrode's (120 mM NaCl, 2.6 mM KCl, 12 mM NaHCO3, 0.39 mM NaH2PO4×H2O, 10 mM HEPES, 0.35% BSA (Bovine Serum Albumin), 5.5 mM glucose, pH 7.4) and adjusted with Tyrode's to a platelet count of 3×10^5/microliter (μl). 13 μl of this cell suspension were then mixed with 866 μl of 10 mM CaCl2 solution, and 120 μl thereof were pipetted into each well of a 96-well plate containing 15 μl of the substance to be tested. After incubation at RT in the dark for 30 minutes, 15 μl of a TRAP solution (70-100 μM) were added as agonist, and kinetics were recorded at 650 nm in a SpectraMax 340 at 37° C. for 20 minutes while shaking. The areas under the curves of negative control (Tyrode's/DMSO) and positive control (15 μl of agonist/DMSO) were calculated and the difference was fixed as the 100% value. The substances to be tested were pipetted as serial dilutions in duplicate determination, the AUC was likewise determined for each substance concentration, and the % inhibition of the AUC compared with the control was calculated. On the basis of the % inhibition, the IC50 was calculated by nonlinear regression analysis according to the 4-parameter equation.
In the case of `CC(C)C1CC(=O)C2=C(C1)Nc1[nH]nc(C(=O)NCC3CC3)c1C2/C=C/c1ccc(-c2cccc(F)c2)cn1` (mixture of isomers) [Example 10, 4-{(E)-2-[5-(3-Fluorophenyl)pyridin-2-yl]vinyl}-7-isopropyl-5-oxo-4,5,6,7,8,9-hexahydro-1H-pyrazolo[3,4-b]quinoline-3-cyclopropylmethylcarboxamide], the IC50 (in general, the point on the concentration scale where inhibition reaches its midpoint) came to 1390 nM.

In turn, `CC1CC(=O)C2=C(C1)Nc1[nH]nc(C(=O)NCC3CC3)c1C2/C=C/c1ccc(-c2cccc(F)c2)cn1` (single isomer, unassigned) [diastereomer 1 from example 13] showed an IC50 of 5120 nM.

On to `CC(C)NC(=O)c1n[nH]c2c1C(/C=C/c1ccc(-c3cccc(F)c3)cn1)C1=C(CC(C)(C)CC1=O)N2` (stereo not shown) [Example 8, 4-{(E)-2-[5-(3-Fluorophenyl)pyridin-2-yl]vinyl}-7,7-dimethyl-5-oxo-4,5,6,7,8,9-hexahydro-1H-pyrazolo[3,4-b]quinoline-3-isopropylcarboxamide], for which the IC50 was determined as 1880 nM.

In turn, `CC(C)(C)CNC(=O)c1n[nH]c2c1C(/C=C/c1ccc(-c3cccc(F)c3)cn1)C1=C(CC(C)(C)CC1=O)N2` (stereo not shown) [Example 15, 4-{(E)-2-[5-(3-Fluorophenyl)pyridin-2-yl]vinyl}-7,7-dimethyl-5-oxo-4,5,6,7,8,9-hexahydro-1H-pyrazolo[3,4-b]quinoline-3-(2,2-dimethylpropyl)carboxamide] displayed an IC50 of 4230 nM.

The compound `CC(C)(CO)CNC(=O)c1n[nH]c2c1C(C=Cc1ccc(-c3cccc(F)c3)cn1)C1=C(CC3(CCCC3)CC1=O)N2` (stereo not shown) [Example 31] displayed an IC50 of 380 nM.

As to `O=C1CC2(CCCC2)CC2=C1C(C=Cc1ccc(-c3cccc(F)c3)cn1)c1c(C(=O)NCC3(CO)CCC3)n[nH]c1N2` (stereo not shown) [Example 33], the IC50 is less than 400 nM.

In turn, `O=C1CC2(CCCC2)CC2=C1[C@H](/C=C/c1ccc(-c3cccc(F)c3)cn1)c1c(C(=O)NCC3(CO)CC3)n[nH]c1N2` [Example 35] yielded an IC50 of 410 nM.

In turn, `CC(C)(CO)CNC(=O)c1n[nH]c2c1C(C=Cc1ccc(-c3cccc(F)c3)cn1)C1=C(CC3(CCC3)CC1=O)N2` (stereo not shown) [Example 36] showed an IC50 of 460 nM.

With `CN1C2=C(C(=O)CC3(CCCC3)C2)C(/C=C/c2ccc(-c3cccc(F)c3)cn2)c2c(C(=O)NCC(C)(C)C)n[nH]c21` (stereo not shown) [Example 37], the IC50 turned out to be 710 nM.

On to `O=C1CC2(CCCC2)CC2=C1C(/C=C/c1ccc(-c3cccc(F)c3)cn1)c1c(C(=O)NC[C@H]3C[C@@H](O)C3)n[nH]c1N2` (stereo partly shown) [Example 38], for which the IC50 was determined as 820 nM.

`COC(C)(C)CNC(=O)c1n[nH]c2c1C(C=Cc1ccc(-c3cccc(F)c3)cn1)C1=C(CC3(CCCC3)CC1=O)N2` (stereo not shown) [Example 39] displayed an IC50 of 450 nM.

`COCCNC(=O)c1n[nH]c2c1C(/C=C/c1ccc(-c3cccc(F)c3)cn1)C1=C(CC3(CCCC3)CC1=O)N2` (stereo not shown) [Example 43]: the IC50 came out at 1200 nM.

In turn, `COCCNC(=O)c1n[nH]c2c1C(/C=C/c1ccc(-c3cccc(F)c3)cn1)C1=C(CC3(CCC3)CC1=O)N2` (stereo not shown) [Example 46] returned an IC50 of 1500 nM.

Consider `O=C1CC2(CCCC2)CC2=C1C(/C=C/c1ccc(-c3cccc(F)c3)cn1)c1c(C(=O)NC3CCCC3)n[nH]c1N2` (stereo not shown) [Example 47], for which the IC50 was 1400 nM.

Consider `CC(C)(CN)CNC(=O)c1n[nH]c2c1C(/C=C/c1ccc(-c3cccc(F)c3)cn1)C1=C(CC3(CCCC3)CC1=O)N2` (stereo not shown) [Example 50], for which the IC50 came out at 910 nM.

`CC1(CNC(=O)c2n[nH]c3c2C(/C=C/c2ccc(-c4cccc(F)c4)cn2)C2=C(CC4(CCCC4)CC2=O)N3)COC1` (stereo not shown) [Example 54] showed an IC50 of 840 nM.
